Structures can show the parent of a compound that is named as a salt.

The first assay addresses T1, human α2C receptor (Homo sapiens, UniProt P18825).
T1 construct: expressed in transfected cells; host or cells: CHO cells, also recombinantly expressing chimeric G protein Gαqi3 and mitochondrial obelin (mtOb)
T1 sequence (P18825 1-462): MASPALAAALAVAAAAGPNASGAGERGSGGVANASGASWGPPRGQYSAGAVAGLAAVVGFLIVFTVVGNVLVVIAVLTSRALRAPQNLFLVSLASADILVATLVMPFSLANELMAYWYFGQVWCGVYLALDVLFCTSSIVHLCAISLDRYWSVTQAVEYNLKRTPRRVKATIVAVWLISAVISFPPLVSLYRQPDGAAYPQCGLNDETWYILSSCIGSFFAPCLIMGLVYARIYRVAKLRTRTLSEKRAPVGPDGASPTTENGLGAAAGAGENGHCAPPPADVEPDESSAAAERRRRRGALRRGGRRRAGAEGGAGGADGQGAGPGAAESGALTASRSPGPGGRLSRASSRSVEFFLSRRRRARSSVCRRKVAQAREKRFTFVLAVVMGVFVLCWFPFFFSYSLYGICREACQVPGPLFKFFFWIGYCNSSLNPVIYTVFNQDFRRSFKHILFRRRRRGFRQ
Nature of the assay: Antagonism against the adrenoreceptor α2C (luminescence, recombinant CHO cell line). The class given is cell-based.
Settings: not given
Here is the method: Antagonism against the adrenoreceptor α1A was tested using a recombinant human α1A receptor CHO cell line which additionally also recombinantly expresses mtAeq (mitochondrial aequorin). Antagonism against the adrenoreceptor α2A was tested using a recombinant human α2A-Gα16 receptor fusion protein CHO cell line (PerkinElmer Life Sciences) which additionally also recombinantly expresses mtAeq. Antagonism against the adrenoreceptor α2B was tested using a recombinant human α2B receptor CHO cell line (PerkinElmer Life Sciences) which additionally also recombinantly expresses mtAeq. Antagonism against the adrenoreceptor α2C was tested using a recombinant human α2C receptor CHO cell line which additionally also recombinantly expresses a chimaric G protein (Gαqi3) and mtOb (mitochondrial obelin).
The cells were cultivated at 37° C. and 5% CO2 in Dulbecco's modified Eagle's Medium/NUT mix F12 with L-glutamine which additionally contains 10% (v/v) inactivated foetal calf serum, 1 mM sodium pyruvate, 0.9 mM sodium bicarbonate, 50 U/ml penicillin, 50 μg/ml streptomycin, 2.5 μg/ml amphotericin B and 1 mg/ml Geneticin. The cells were passaged with enzyme-free Hank's-based cell dissociation buffer. All cell culture reagents used are from Invitrogen (Carlsbad, USA).
Luminescence measurements were carried out on white 384-well microtitre plates. 2000 cells/well were plated in a volume of 25 μl and cultivated for one day at 30° C. and 5% CO2 in cell culture medium with coelenterazine (α2A and α2B: 5 μg/ml; α1a/c and α2C: 2.5 μg/ml). Serial dilutions of the test substances (10 μl) were added to the cells. After 5 minutes, noradrenalinee was added to the cells (35 μl; final concentrations: 20 nM (α1a/c and α2C) or 200 nM (α2A and α2B)), and the emitted light was measured for 50 seconds using a CCD (charge-coupled device) camera (Hamamatsu Corporation, Shizuoka, Japan) in a light-tight box. The test substances were tested up to a maximum concentration of 10 μM. The IC50 values were calculated from the appropriate dose-response curves.
One may read the IC50 as the midpoint of a concentration-inhibition curve. Consider `CNCC1(c2ccc(C(=O)N3CCC(N4CCCC(C)C4)CC3)cc2)CCC1` (stereo not drawn) [Example 68, (4-{1-[(Methylamino)methyl]cyclobutyl}phenyl) (3-methyl-1,4′-bipiperidin-1′-yl)methanone trifluoroacetic acid salt], for which the IC50 worked out at 4 nM.

The same assay, now with this note: antagonism against adrenoreceptor α2C; noradrenaline 20 nM; tested up to 10 μM; read-out: IC50.
For the compound `CC1CCCN(C2CCN(C(=O)c3ccc(C(=O)NC(CO)Cc4ccc(Cl)cc4)cc3)CC2)C1` (stereo not drawn) [Example 53, N-[1-(4-chlorophenyl)-3-hydroxypropan-2-yl]-4-[(3-methyl-1,4′-bipiperidin-1′-yl)carbonyl]benzamide], the IC50 came to 198 nM.
As to `CC1CCCN(C2CCN(C(=O)c3ccc(C(=O)NC(C)Cn4cccn4)cc3)CC2)C1` (stereo not drawn) [Example 54, 4-[(3-methyl-1,4′-bipiperidin-1′-yl)carbonyl]-N-[1-(1H-pyrazol-1-yl)propan-2-yl]benzamide], the IC50 was 199 nM.
Same read-out and setting: the same measure for `COCC(C)NC(=O)c1ccc(C(=O)N2CCC(N3CCCC(C)C3)CC2)cc1` (stereo not drawn) [Example 55, N-(1-methoxypropan-2-yl)-4-[(3-methyl-1,4′-bipiperidin-1′-yl)carbonyl]benzamide]: 330 nM; for `Cc1noc(C)c1NC(=O)c1ccc(C(=O)N2CCC(N3CCCC(C)C3)CC2)cc1` (stereo not drawn) [Example 56, N-(3,5-dimethyl-1,2-oxazol-4-yl)-4-[(3-methyl-1,4′-bipiperidin-1′-yl)carbonyl]benzamide]: 35 nM.
Regarding `CC1CCCN(C2CCN(C(=O)c3ccc(C4(CN(C)S(C)(=O)=O)CCC4)cc3)CC2)C1` (stereo not drawn) [Example 57, N-Methyl-N-[(1-{4-[(3-methyl-1,4′-bipiperidin-1′yl)carbonyl]phenyl}cyclobutyl)methyl]methanesulphonamide], the IC50 was determined as 18 nM.
In the case of `COCC1CCCN(C2CCN(C(=O)c3ccc(C(C)(C)O)cc3)CC2)C1` (stereo not drawn) [Example 58, [4-(2-Hydroxypropan-2-yl)phenyl][3-(methoxymethyl)-1,4′-bipiperidin-1′-yl]methanone], the IC50 was found to be 25 nM.
For the compound `CC(C)(O)c1ccc(C(=O)N2CCC(N3CCCC(c4nnc(C5CC5)[nH]4)C3)CC2)cc1` (stereo not drawn) [Example 60, [3-(5-Cyclopropyl-4H-1,2,4-triazol-3-yl)-1,4′-bipiperidin-1′-yl][4-(2-hydroxypropan-2-yl)phenyl]methanone], the concentration for half-maximal inhibition (IC50) was 45 nM.
For `CC(C)(O)c1ccc(C(=O)N2CCC(N3CCCC(c4nc(C5CCC5)n[nH]4)C3)CC2)cc1` (stereo not drawn) [Example 61, [3-(5-Cyclobutyl-4H-1,2,4-triazol-3-yl)-1,4′-bipiperidin-1′-yl][4-(2-hydroxypropan-2-yl)phenyl]methanone], the IC50 was found to be 111 nM.
The same measure, in the same setting: then `CCc1nc(C2CCCN(C3CCN(C(=O)c4ccc(C(C)(C)O)cc4)CC3)C2)n[nH]1` (stereo not drawn) [Example 62, [3-(5-Ethyl-1H-1,2,4-triazol-3-yl)-1,4′-bipiperidin-1′-yl][4-(2-hydroxypropan-2-yl)phenyl]methanone], with 154 nM; and `Cc1n[nH]c(C2CCCN(C3CCN(C(=O)c4ccc(C(C)(C)O)cc4)CC3)C2)n1` (stereo not drawn) [Example 63, [4-(2-Hydroxypropan-2-yl)phenyl][3-(3-methyl-1H-1,2,4-triazol-5-yl)-1,4′-bipiperidin-1′-yl]methanone], with 128 nM.
Still for that read-out and setting: then `CC(C)(O)c1ccc(C(=O)N2CCC(N3CCCC(c4ncn[nH]4)C3)CC2)cc1` (stereo not drawn) [Example 64], with 393 nM.
Still for that read-out and setting: then `CC1CCCN(C2CCN(C(=O)c3ccc(C(C)(C)C(=O)NC(C)(C)C)cc3F)CC2)C1` (stereo not drawn) [Example 65, N-tert-Butyl-2-{3-fluoro-4-[(3-methyl-1,4′-bipiperidin-1′-yl)carbonyl]phenyl}-2-methylpropanamide], with 134 nM.
In the case of `CC1CCCN(C2CCN(C(=O)c3ccc(C4(CNC=O)CCC4)cc3)CC2)C1` (stereo not drawn) [Example 66, N-[(1-{4-[(3-Methyl-1,4′-bipiperidin-1′-yl)carbonyl]phenyl}cyclobutyl)methyl]formamide hydrochloride], the IC50 amounted to 15 nM.
In the case of `CC1CCCN(C2CCN(C(=O)c3ccc(C4(CN(C)C=O)CCC4)cc3)CC2)C1` (stereo not drawn) [Example 67, N-Methyl-N-[(1-{4-[(3-methyl-1,4′-bipiperidin-1′-yl)carbonyl]phenyl}cyclobutyl)methyl]formamide trifluoroacetic acid salt], the IC50 was 51 nM.
`CC(C)(O)c1ccc(C(=O)N2CCC(N3CCCC(c4nc(CC5CCC5)n[nH]4)C3)CC2)cc1` (stereo not drawn) [Example 69, {3-[5-(Cyclobutylmethyl)-4H-1,2,4-triazol-3-yl]-1,4′-bipiperidin-1′-yl}[4-(2-hydroxypropan-2-yl)phenyl]methanone]: the IC50 is 25 nM.
Same read-out and setting: then `CC1CCCN(C2CCN(C(=O)c3ccc(C(=O)NCc4cccc(OC(F)(F)F)c4)cc3)CC2)C1` (stereo not drawn) [Example 70, 4-[(3-Methyl-1,4′-bipiperidin-1′-yl)carbonyl]-N-[3-(trifluoromethoxy)benzyl]benzamide trifluoroacetic acid salt], with 190 nM; and `CC1CCCN(C2CCN(C(=O)c3ccc(C(=O)NC(C)(C)c4ccccc4)cc3)CC2)C1` (stereo not drawn) [Example 71, 4-[(3-Methyl-1,4′-bipiperidin-1′-yl)carbonyl]-N-(2-phenylpropan-2-yl)benzamide trifluoroacetic acid salt], with 64 nM; and `CC1CCCN(C2CCN(C(=O)c3ccc(C(=O)NC(C)(C)c4ccc(C(F)(F)F)cc4)cc3)CC2)C1` (stereo not drawn) [Example 72, 4-[(3-Methyl-1,4′-bipiperidin-1′-yl)carbonyl]-N-{2-[4-(trifluoromethyl)phenyl]propan-2-yl}benzamide trifluoroacetic acid salt], with 116 nM.
Take `CC1CCCN(C2CCN(C(=O)c3ccc(C(=O)NC(C)(C)c4ccc(Cl)c(Cl)c4)cc3)CC2)C1` (stereo not drawn) [Example 73, N-[2-(3,4-Dichlorophenyl)propan-2-yl]-4-[(3-methyl-1,4′-bipiperidin-1′-yl)carbonyl]benzamide trifluoroacetic acid salt]: the IC50 was found to be 80 nM.
Same read-out and setting: then `Cc1cccnc1CNC(=O)c1ccc(C(=O)N2CCC(C3CCCC(C)C3)CC2)cc1` (stereo not drawn) [Example 74, 4-{[4-(3-Methylcyclohexyl)piperidin-1-yl]carbonyl}-N-[(3-methylpyridin-2-yl)methyl]benzamide trifluoroacetic acid salt], with 155 nM; and `CC1CCCN(C2CCN(C(=O)c3ccc(C(=O)NCc4ccnc(Cl)c4)cc3)CC2)C1` (stereo not drawn) [Example 75, N-[(2-Chloropyridin-4-yl)methyl]-4-[(3-methyl-1,4′-bipiperidin-1′-yl)carbonyl]benzamide trifluoroacetic acid salt], with 36 nM; and `CC1CCCN(C2CCN(C(=O)c3ccc(C(=O)NCc4cccc(Cl)n4)cc3)CC2)C1` (stereo not drawn) [Example 76, N-[(6-Chloropyridin-2-yl)methyl]-4-[(3-methyl-1,4′-bipiperidin-1′-yl)carbonyl]benzamide trifluoroacetic acid salt], with 445 nM.
For the compound `CC1CCCN(C2CCN(C(=O)c3ccc(C(=O)NC(C)(C)c4ccc(Cl)cc4)cc3)CC2)C1` (stereo not drawn) [Example 77, N-[2-(4-Chlorophenyl)propan-2-yl]-4-[(3-methyl-1,4′-bipiperidin-1′-yl)carbonyl]benzamide trifluoroacetic acid salt], the IC50 worked out at 54 nM.
The same measure, in the same setting: the same measure for `CC1CCCN(C2CCN(C(=O)c3ccc(C(=O)NC(C)(C)c4ccccc4Cl)cc3)CC2)C1` (stereo not drawn) [Example 78, N-[2-(2-Chlorophenyl)propan-2-yl]-4-[(3-methyl-1,4′-bipiperidin-1′-yl)carbonyl]benzamide trifluoroacetic acid salt]: 24 nM; for `CC1CCCN(C2CCN(C(=O)c3ccc(C(=O)NC(C)(C)c4cccc(Cl)c4)cc3)CC2)C1` (stereo not drawn) [Example 79, N-[2-(3-Chlorophenyl)propan-2-yl]-4-[(3-methyl-1,4′-bipiperidin-1′-yl)carbonyl]benzamide trifluoroacetic acid salt]: 54 nM.
Take `CC1CCCN(C2CCN(C(=O)c3ccc(C(=O)NC(C)(C)c4cc(Cl)cc(Cl)c4)cc3)CC2)C1` (stereo not drawn) [Example 80, N-[2-(3,5-Dichlorophenyl)propan-2-yl]-4-[(3-methyl-1,4′-bipiperidin-1′-yl)carbonyl]benzamide trifluoroacetic acid salt]: the IC50 came out at 150 nM.

(Values after patent publication US20160318866A1, “SUBSTITUTED BIPIPERIDINYL DERIVATIVES” (Bayer Pharma Aktiengesellschaft, priority 2013, published 2016).)
